According to BigSolDB 2.1:

Conditions: in water

## CC(C)Br
295.25 K
  solubility (mole fraction): 0.000587
300.15 K
  solubility (mole fraction): 0.00082
303.55 K
  solubility (mole fraction): 0.00104
306.25 K
  solubility (mole fraction): 0.00121
310.35 K
  solubility (mole fraction): 0.00157
313.25 K
  solubility (mole fraction): 0.00189
316.15 K
  solubility (mole fraction): 0.00227
321.25 K
  solubility (mole fraction): 0.00307
323.25 K
  solubility (mole fraction): 0.00343
325.55 K
  solubility (mole fraction): 0.00394
329.35 K
  solubility (mole fraction): 0.00483
331.25 K
  solubility (mole fraction): 0.00536
334.15 K
  solubility (mole fraction): 0.0063
337.35 K
  solubility (mole fraction): 0.00743
340.55 K
  solubility (mole fraction): 0.0087
343.15 K
  solubility (mole fraction): 0.0101
345.45 K
  solubility (mole fraction): 0.0112
348.55 K
  solubility (mole fraction): 0.0127
350.15 K
  solubility (mole fraction): 0.0139
352.35 K
  solubility (mole fraction): 0.0154
354.75 K
  solubility (mole fraction): 0.0171

## NC(N)=S
290.75 K
  solubility (mole fraction): 0.0256
293.05 K
  solubility (mole fraction): 0.0289
296.65 K
  solubility (mole fraction): 0.0347
300.25 K
  solubility (mole fraction): 0.0413
303.15 K
  solubility (mole fraction): 0.0474
307.1 K
  solubility (mole fraction): 0.0583
310.15 K
  solubility (mole fraction): 0.0641
313.15 K
  solubility (mole fraction): 0.071
315.85 K
  solubility (mole fraction): 0.0806
318.35 K
  solubility (mole fraction): 0.0886
320.75 K
  solubility (mole fraction): 0.0969
323.25 K
  solubility (mole fraction): 0.103
326.05 K
  solubility (mole fraction): 0.116
328.45 K
  solubility (mole fraction): 0.126
330.55 K
  solubility (mole fraction): 0.135
333.25 K
  solubility (mole fraction): 0.15
336.45 K
  solubility (mole fraction): 0.161
340.75 K
  solubility (mole fraction): 0.183
343.55 K
  solubility (mole fraction): 0.198
347.35 K
  solubility (mole fraction): 0.218
351.15 K
  solubility (mole fraction): 0.239
353.45 K
  solubility (mole fraction): 0.251
355.75 K
  solubility (mole fraction): 0.265
